The text below walks through data of publication PMC9150076 (Journal of Medicinal Chemistry, 2022).

One data set addresses T1, human FAAH (Homo sapiens, UniProt O00519).
T1 sequence (O00519 1-579): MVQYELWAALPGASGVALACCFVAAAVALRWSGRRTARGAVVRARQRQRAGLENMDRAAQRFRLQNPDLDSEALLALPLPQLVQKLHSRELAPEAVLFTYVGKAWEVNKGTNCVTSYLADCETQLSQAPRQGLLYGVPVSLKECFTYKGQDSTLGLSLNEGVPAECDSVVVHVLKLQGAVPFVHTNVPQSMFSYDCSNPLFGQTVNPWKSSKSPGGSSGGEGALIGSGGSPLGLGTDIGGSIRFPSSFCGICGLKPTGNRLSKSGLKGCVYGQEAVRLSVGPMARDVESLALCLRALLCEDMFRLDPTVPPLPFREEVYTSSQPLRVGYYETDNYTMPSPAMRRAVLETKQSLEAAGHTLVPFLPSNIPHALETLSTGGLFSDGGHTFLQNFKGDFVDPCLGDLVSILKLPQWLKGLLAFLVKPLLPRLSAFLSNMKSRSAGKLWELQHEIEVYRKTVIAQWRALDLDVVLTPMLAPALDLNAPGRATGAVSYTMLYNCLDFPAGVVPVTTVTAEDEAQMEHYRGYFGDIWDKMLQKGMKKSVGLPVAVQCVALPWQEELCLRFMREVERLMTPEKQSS
Also on record: purchased Cayman Chemical; method as in PMID 33045662. To be noted: reference benzoylpiperidines; read-out: IC50 hFAAH; cited from earlier work.

Data set [1] has as its target T2, human MAGL (Homo sapiens, UniProt Q99685).
T2 sequence (Q99685 1-303): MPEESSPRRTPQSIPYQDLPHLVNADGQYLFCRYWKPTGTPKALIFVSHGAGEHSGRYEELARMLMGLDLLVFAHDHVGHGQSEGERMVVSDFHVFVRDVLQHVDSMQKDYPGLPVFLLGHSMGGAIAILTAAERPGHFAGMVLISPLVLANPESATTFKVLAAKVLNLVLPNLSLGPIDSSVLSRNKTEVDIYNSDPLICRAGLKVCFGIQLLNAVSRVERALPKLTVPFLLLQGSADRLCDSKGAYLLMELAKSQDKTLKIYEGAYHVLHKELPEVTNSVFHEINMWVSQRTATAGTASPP
Also on record: purchased Cayman Chemical; method as in PMID 33045662. To be noted: reference benzoylpiperidines; read-out: IC50 hMAGL; cited from earlier work.

Data set [2] in a line: Stability test in human plasma. The conditions noted are these: 37 °C. In kind it is in vitro ADME. The protocol:
The incubation mixture (total volume of […]) was constituted by the following components: pooled human plasma (1.5 mL, 55.7 mg protein/mL),[65] HEPES buffer (1.4 mL, 25 mM, 140 mM NaCl pH 7.4), and 100 μL of each compound in DMSO (3.0 mM). The solution was mixed in a test tube that was incubated at 37 °C. At set time points (0.0, 0.25, 0.50, 1.0, 2.0, 4.0, 8.0, and 24.0 h), samples of 100 μL were taken, mixed with 400 μL of cold acetonitrile, and centrifuged at 5000 rpm for 15 min.[66] The supernatant was removed and analyzed by UV/LC–MS. For each compound, the determination was performed in three independent experiments.

A short description of data set [3]: Stability test in polar solvents. In kind it is physicochemical. The protocol:
Each compound was dissolved at RT in MeOH or PBS (25 mM, pH 7.4) up to a final concentration of 500 μM. Aliquot samples (20 μL) were taken at fixed time points (0.0, 4.0, 8.0, and 24.0 h) and were analyzed by UV/LC–MS. For each compound, the determination was performed in three independent experiments.

A further data set in a line: Water solubility. Format: physicochemical. To be noted: distilled water, room temperature. How it is done: 6.9 software. Chromatographic separation was obtained using a Kinetex C18 column (150 × 4.6 mm) with a 5 μm particle size and gradient elution with a binary solution; (eluent A: ACN, eluent B: water, both eluents were acidified with formic acid 0.1% v/v). The analysis started with 5% of A (from t = 0 to t = 1 min), then A was increased to 95% (from t = 1 to t = 10 min), then kept at 95% (from t = 10 to t = 19 min), and finally returned to 5% of eluent A in 1.0 min. The flow rate was 0.6 mL/min, and injection volumes were 10 μL. The instrument operated in positive mode, and parameters were detector 1450 V, drying gas pressure 35.0 psi, desolvation temperature 300.0 °C, nebulizing gas 45.0 psi, needle 5550 V and shield 350 V. Nitrogen was used as a nebulizer gas and drying gas. Collision-induced dissociation was performed using argon as the collision gas at a pressure of 1.8 mTorr in the collision cell. The transitions as well as the capillary voltage and the collision energy used are appropriated for each tested compound. Quantification of the single compound was made by comparison with appropriate calibration curves realized with standard solutions in methanol. LC analyses of PAMPA, metabolic stability, and stability tests (in MeOH, PBS, human plasma) were performed by UV/LC–MS with an Agilent 1100 LC/MSD VL system ((G1946C) Agilent Technologies, Palo Alto, CA) using a Phenomenex Kinetex C18–100 Å (150 × 4.6 mm, 5 μm particle size) at room temperature. Analyses were carried out with the same chromatographic conditions reported above.
Each sample was mixed at room temperature in a shaker water bath for 24 h.[62] The resulting suspension was filtered through a 0.45 μm nylon filter (Acrodisc), and the solubilized compound was quantified in triplicate using the LC–MS/MS method reported above, by comparison with the appropriate calibration curve that was obtained from samples of the compound dissolved in methanol at different concentrations.

Data set [4] in a line: Metabolic stability in human liver microsomes. In kind it is in vitro ADME. To be noted: 37 °C, 1 h, percentage of unmodified compound. The protocol:
The reaction was cooled down in ice and quenched by adding acetonitrile (1.0 mL). After centrifugation (4000 rpm for 10 min), the supernatant was taken, dried under nitrogen flow, and suspended in 100 μL of methanol and the parent drug and metabolites were subsequently determined by UV/LC–MS. The percentage of nonmetabolized compounds was calculated by comparison with reference solutions. For each compound, the determination was performed in three independent experiments.
(Microsomes from liver hold many membrane-bound enzymes, among them those of drug oxidation.)

The target of a further data set is MAGL (Mus musculus, UniProt O35678).
Chain of MAGL (O35678 whole entry): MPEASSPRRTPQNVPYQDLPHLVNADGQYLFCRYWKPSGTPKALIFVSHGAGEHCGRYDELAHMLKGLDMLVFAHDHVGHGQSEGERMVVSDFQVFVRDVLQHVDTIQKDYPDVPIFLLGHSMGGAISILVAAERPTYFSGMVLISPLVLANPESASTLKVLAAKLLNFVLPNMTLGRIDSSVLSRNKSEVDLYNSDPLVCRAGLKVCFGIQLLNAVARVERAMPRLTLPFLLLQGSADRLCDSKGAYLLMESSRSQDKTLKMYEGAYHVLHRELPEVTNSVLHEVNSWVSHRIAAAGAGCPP
For data set [5], the target named is T2, human MAGL.
For data set [6], the system named is active caspase-3 in PDAC3 cells. In words: Active caspase-3 immunoassay, PDAC3. Format: cell-based, human. To be noted: PDAC3, compared to untreated cells.
In a further data set the test system is PDAC3 cells. In words: Wound-healing/migration assay, PDAC3. Format: cell-based, human. The conditions noted are these: PDAC3, 20 h, drug at 5× IC50; control 59 ± 8%.
Data set [7] deals with PDAC3 primary cell culture. In words: Growth inhibition, SRB assay, PDAC3. In kind it is cell-based, human. To be noted: PDAC3, SRB. A general note: The SRB assay estimates cell density from bound dye.
The test system of the next data set is PDAC2 cells. To be noted: PDAC2, single agent.
Data set [8] concerns active caspase-3 in PDAC2 cells. In words: Active caspase-3 immunoassay, PDAC2. Format: cell-based, human. The conditions noted are these: untreated 0.35.

Read-outs that look alike come from different tables or passages of the source.

As for `O=C(c1ccc(Sc2ccccc2)cc1)C1CCN(C(=O)c2cc(O)ccc2F)CC1` [Compound 5b], the figures for the IC50 on human FAAH and at human MAGL [1] were more than 10000 nM and 30.5 ± 1.8 nM, respectively.

Take `O=C(c1ccc(Sc2cccc(C(F)(F)F)c2)cc1)C1CCN(C(=O)c2cc(O)ccc2F)CC1` [Compound 5c, reference compound]: in [2], the stability human plasma is more than 24 h. Besides, the “stability MeOH” value in data set [3] (MeOH, RT) is given as more than 24 h. For the same compound, in [3] (PBS pH 7.4, RT), the “stability PBS pH 7.4” value is listed as more than 24 h. For the same compound, the solubility – broadly, the dissolved amount per volume that the medium holds – at 24 h in the data set “Water solubility” (read-out: water solubility) is less than 1 ng/mL; in the data set “Water solubility” (read-out: water solubility (logS)), less than 1.99 nM. The same compound displayed a metabolic stability in [4] of 90.5%.

As to `O=C(Oc1ccc([N+](=O)[O-])cc1)N1CCC(C(O)(c2ccc3c(c2)OCO3)c2ccc3c(c2)OCO3)CC1` [JZL-184], the “TAMRA-FP labelling of MAGL bands (ABPP)” value at MAGL is given as “can fully compete with the probe”. Besides, the “mechanism of inhibition (pre-incubation and dilution assays)” value on human MAGL [5] is “irreversible mechanism of action”. In addition, the “levels of active caspase-3” value in data set [6] was “similarly effective in stimulating caspase-3”. In the data set with PDAC3 cells, this compound had a scratch area closed of 43 ± 8%. In data set [7], the “PDAC3 cell growth inhibitory effect (cell growth curves)” value is on record as “effective in reducing PDAC3 proliferation”.

Consider `Nc1ccn([C@@H]2O[C@H](CO)[C@@H](O)C2(F)F)c(=O)n1` [gemcitabine], for which, in the data set with PDAC2 cells, the apoptosis fold induction/change was approximately 5 fold. Further, the results for the “levels of active caspase-3” value in data set [6] and in data set [8] were “significantly higher levels of active caspase-3” and 0.88 ng/mL, respectively.
